Assay results from PubChem BioAssay AID256 (DTP/NCI, 2004).
Where “and” joins values, the source holds several entries; their conditions need not be identical. Equal values may be shown once. Inconclusive results and toxic doses are left out. Rule for the calls: active = survival T/C of 150% or more; inactive = T/C below 125% in these data.

Tested on: CD2F1 mice, L1210 leukemia ip, survival T/C
Experiment: NCI In Vivo Anticancer Drug Screen. Data for tumor model L1210 Leukemia (intraperitoneal) in CD2F1 (CDF1) mice
Conditions: higher = longer survival
Method in brief: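 Antitumor effect is scored in animals hosting a serially transplanted tumor. Values compare compound-dosed animals against vehicle-only controls as a simple quotient.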

[1] = endpoint: mean survival time, dose: 100.0 mg/kg/injection, schedule: Q01DX001 (ip), vehicle: saline with Tween-80
[2] = endpoint: mean survival time, dose: 100.0 mg/kg/injection, schedule: Q04DX002 (ip), vehicle: saline with Tween-80
[3] = endpoint: mean survival time, dose: 100.0 mg/kg/injection, schedule: Q01DX009 (ip), vehicle: saline
[4] = endpoint: mean survival time, dose: 200.0 mg/kg/injection, schedule: Q01DX009 (ip), vehicle: saline
[5] = endpoint: mean survival time, dose: 400.0 mg/kg/injection, schedule: Q01DX009 (ip), vehicle: saline
[6] = endpoint: mean survival time, dose: 100.0 mg/kg/injection, schedule: Q01DX009 (ip), vehicle: saline with Tween-80
[7] = endpoint: mean survival time, dose: 100.0 mg/kg/injection, schedule: Q04DX003 (ip), vehicle: saline with Tween-80
[8] = endpoint: mean survival time, dose: 200.0 mg/kg/injection, schedule: Q01DX009 (ip), vehicle: saline with Tween-80
[9] = endpoint: mean survival time, dose: 200.0 mg/kg/injection, schedule: Q04DX003 (ip), vehicle: saline with Tween-80
[10] = endpoint: mean survival time, dose: 400.0 mg/kg/injection, schedule: Q01DX009 (ip), vehicle: saline with Tween-80
[11] = endpoint: mean survival time, dose: 400.0 mg/kg/injection, schedule: Q04DX003 (ip), vehicle: saline with Tween-80
[12] = endpoint: mean survival time, dose: 100.0 mg/kg/injection, schedule: Q04DX003 (ip), vehicle: saline
[13] = endpoint: mean survival time, dose: 200.0 mg/kg/injection, schedule: Q04DX003 (ip), vehicle: saline
[14] = endpoint: mean survival time, dose: 400.0 mg/kg/injection, schedule: Q04DX003 (ip), vehicle: saline
[15] = endpoint: mean survival time, dose: 40.0 mg/kg/injection, schedule: Q01DX009 (ip), vehicle: saline with Tween-80

Measured: T/C

O=C(O)c1cccnc1Cl
inactive: endpoint: mean survival time, dose: 75.0 mg/kg/injection, schedule: Q01DX009 (ip), vehicle: Klucel (hydroxypropylcellulose) (HPC) 111 % of control | endpoint: mean survival time, dose: 150.0 mg/kg/injection, schedule: Q01DX009 (ip), vehicle: Klucel (hydroxypropylcellulose) (HPC) 94 % of control

CCCCCCP(C)(=O)CCCCCC
inactive: endpoint: mean survival time, dose: 25.0 mg/kg/injection, schedule: Q01DX001 (ip), vehicle: saline with Tween-80 96 % of control | endpoint: mean survival time, dose: 50.0 mg/kg/injection, schedule: Q01DX001 (ip), vehicle: saline with Tween-80 97 % of control | [1] 100 % of control

CC1(Br)CCOC1=O (stereo not given)
inactive: endpoint: mean survival time, dose: 50.0 mg/kg/injection, schedule: Q04DX002 (ip), vehicle: saline with Tween-80 98 % of control | [2] 98 % of control | endpoint: mean survival time, dose: 200.0 mg/kg/injection, schedule: Q04DX002 (ip), vehicle: saline with Tween-80 111 % of control

OC1c2ccccc2-c2ccccc21
inactive: [3] 88 % of control | [4] 88 % of control | [5] 87 % of control

CC(=O)/C=C\c1cc(C)ccc1O
inactive: endpoint: mean survival time, dose: 100.0 mg/kg/injection, schedule: Q01DX001 (ip), vehicle: Klucel (hydroxypropylcellulose) (HPC) 95 % of control | endpoint: mean survival time, dose: 200.0 mg/kg/injection, schedule: Q01DX001 (ip), vehicle: Klucel (hydroxypropylcellulose) (HPC) 103 % of control | endpoint: mean survival time, dose: 400.0 mg/kg/injection, schedule: Q01DX001 (ip), vehicle: Klucel (hydroxypropylcellulose) (HPC) 100 % of control

CCCCCCSC(=O)NC(C)=O
inactive: [6] 92 % of control | [7] 91 % of control | [8] 94 % of control | [9] 94 % of control | [10] 106 % of control | [11] 94 % of control

CCC1(C)C(C#N)C(=O)NC(=O)C1C#N (stereo not given)
inactive: endpoint: mean survival time, dose: 50.0 mg/kg/injection, schedule: Q01DX009 (ip), vehicle: saline sonified 96 % of control | endpoint: mean survival time, dose: 100.0 mg/kg/injection, schedule: Q01DX009 (ip), vehicle: saline sonified 90 % of control | [7] 100 % of control | [9] 100 % of control

O=C(C(=O)c1ccccc1)c1ccccc1
inactive: [3] 100 % of control | [4] 101 % of control | [5] 108 % of control

CC(C)(C)N1C2CCCC21 (stereo not given)
inactive: endpoint: mean survival time, dose: 5.0 mg/kg/injection, schedule: Q01DX001 (ip), vehicle: saline 106 % of control | endpoint: mean survival time, dose: 5.0 mg/kg/injection, schedule: Q01DX009 (ip), vehicle: saline 102 % of control | endpoint: mean survival time, dose: 10.0 mg/kg/injection, schedule: Q01DX001 (ip), vehicle: saline 106 % of control | endpoint: mean survival time, dose: 10.0 mg/kg/injection, schedule: Q01DX009 (ip), vehicle: saline 102 % of control | endpoint: mean survival time, dose: 20.0 mg/kg/injection, schedule: Q01DX001 (ip), vehicle: saline 95 % of control | endpoint: mean survival time, dose: 20.0 mg/kg/injection, schedule: Q01DX009 (ip), vehicle: saline 100 % of control

Cc1cc2ccc(Cl)cc2[nH]1
inactive: endpoint: mean survival time, dose: 100.0 mg/kg/injection, schedule: Q01DX001 (ip), vehicle: other 104 % of control | endpoint: mean survival time, dose: 200.0 mg/kg/injection, schedule: Q01DX001 (ip), vehicle: other 104 % of control

OCCN1CCNC1=S
inactive: [3] 97 % of control | [12] 97 % of control | [4] 97 % of control | [13] 92 % of control | [5] 102 % of control | [14] 98 % of control

Nc1ccc(-c2ccc(N)cc2O)c(O)c1
inactive: endpoint: mean survival time, dose: 50.0 mg/kg/injection, schedule: Q01DX009 (ip), vehicle: saline with Tween-80 98 % of control | [6] 95 % of control

CO/N=C/c1ccc([N+](=O)[O-])s1
inactive: endpoint: mean survival time, dose: 50.0 mg/kg/injection, schedule: Q01DX009 (ip), vehicle: saline 116 % of control

CC1COS(=O)O1 (stereo not given)
inactive: endpoint: mean survival time, dose: 10.0 mg/kg/injection, schedule: Q01DX009 (ip), vehicle: saline with Tween-80 96 % of control | endpoint: mean survival time, dose: 10.0 mg/kg/injection, schedule: Q04DX003 (ip), vehicle: saline 103 % of control | endpoint: mean survival time, dose: 20.0 mg/kg/injection, schedule: Q01DX009 (ip), vehicle: saline with Tween-80 101 % of control | endpoint: mean survival time, dose: 20.0 mg/kg/injection, schedule: Q04DX003 (ip), vehicle: saline 97 % of control | [15] 109 % of control | endpoint: mean survival time, dose: 40.0 mg/kg/injection, schedule: Q04DX003 (ip), vehicle: saline 101 % of control

[Cl][Pt+2][Cl].[NH-]c1ccc(Cl)cc1[NH-]
active: [15] 179 % of control
inactive: endpoint: mean survival time, dose: 2.5 mg/kg/injection, schedule: Q01DX009 (ip), vehicle: saline with Tween-80 113 % of control | endpoint: mean survival time, dose: 5.0 mg/kg/injection, schedule: Q01DX009 (ip), vehicle: saline with Tween-80 118 % of control

NC(=O)SCCCCl
inactive: [6] 103 % of control | endpoint: mean survival time, dose: 118.0 mg/kg/injection, schedule: Q01DX009 (ip), vehicle: saline with Tween-80 106 % of control | endpoint: mean survival time, dose: 178.0 mg/kg/injection, schedule: Q01DX009 (ip), vehicle: saline with Tween-80 112 % of control | [8] 113 % of control | endpoint: mean survival time, dose: 266.0 mg/kg/injection, schedule: Q01DX009 (ip), vehicle: saline with Tween-80 124 % of control

O=[N+]([O-])c1ccc2ccccc2c1I
inactive: [6] 92 % of control | [7] 87 % of control | [8] 98 % of control | [9] 93 % of control | [10] 90 % of control | [11] 92 % of control

CC1(C)OC2C(C#N)OC(n3ccc(=O)[nH]c3=O)C2O1 (stereo not given)
inactive: endpoint: median survival time, dose: 21.88 mg/kg/injection, schedule: Q01DX005 (ip), vehicle: Klucel (hydroxypropylcellulose) (HPC) 101 % of control | endpoint: median survival time, dose: 43.75 mg/kg/injection, schedule: Q01DX005 (ip), vehicle: Klucel (hydroxypropylcellulose) (HPC) 102 % of control | endpoint: median survival time, dose: 87.5 mg/kg/injection, schedule: Q01DX005 (ip), vehicle: Klucel (hydroxypropylcellulose) (HPC) 98 % of control | endpoint: median survival time, dose: 175.0 mg/kg/injection, schedule: Q01DX005 (ip), vehicle: Klucel (hydroxypropylcellulose) (HPC) 102 % of control

Cc1ccc(NC(=O)NCCCCCCNC(=O)Nc2ccc(C)c(Cl)c2)cc1Cl
inactive: [1] 89 % of control | endpoint: mean survival time, dose: 400.0 mg/kg/injection, schedule: Q01DX001 (ip), vehicle: saline with Tween-80 91 % of control

Cc1ccc(S(=O)(=O)N=P(c2ccccc2)(c2ccccc2)c2ccccc2)cc1
inactive: [6] 93 % of control and 94 % of control | [8] 88 % of control | [10] 91 % of control and 93 % of control

Cc1nc(C)c(CCO)c(=O)[nH]1
inactive: [7] 97 % of control | [9] 101 % of control | [11] 103 % of control

O=C(C[n+]1ccccc1)c1ccccc1
inactive: endpoint: mean survival time, dose: 25.0 mg/kg/injection, schedule: Q01DX001 (ip), vehicle: saline 102 % of control | endpoint: mean survival time, dose: 50.0 mg/kg/injection, schedule: Q01DX001 (ip), vehicle: saline 106 % of control | endpoint: mean survival time, dose: 100.0 mg/kg/injection, schedule: Q01DX001 (ip), vehicle: saline 96 % of control and 97 % of control | [2] 96 % of control

O=c1[nH]cc(F)c(=O)[nH]1.[Tl]
inactive: endpoint: mean survival time, dose: 1.5 mg/kg/injection, schedule: Q01DX009 (ip), vehicle: water 106 % of control | endpoint: mean survival time, dose: 3.1 mg/kg/injection, schedule: Q01DX009 (ip), vehicle: water 112 % of control | endpoint: mean survival time, dose: 6.25 mg/kg/injection, schedule: Q01DX009 (ip), vehicle: water 124 % of control | endpoint: mean survival time, dose: 12.5 mg/kg/injection, schedule: Q01DX009 (ip), vehicle: water 91 % of control

CCCCCC(O)C(O)CC(O)C(O)CCCCCCCC(=O)O (stereo not given)
inactive: [12] 94 % of control | [13] 91 % of control | [14] 100 % of control

Cc1ccc(CNc2ccc(I)cc2)cc1
inactive: [7] 93 % of control | [9] 88 % of control | [11] 86 % of control
